Measured values as given in patent US4550186A, “Binuclear copper (II) carboxylates formed from amine-carboxyboranes” (Duke University, priority 1983, dated 1985).

Target: T1, transfer ribonucleic acid polymerase (Mus musculus, UniProt B2RXC6+P59470)
T1 sequence (B2RXC6 1-1390): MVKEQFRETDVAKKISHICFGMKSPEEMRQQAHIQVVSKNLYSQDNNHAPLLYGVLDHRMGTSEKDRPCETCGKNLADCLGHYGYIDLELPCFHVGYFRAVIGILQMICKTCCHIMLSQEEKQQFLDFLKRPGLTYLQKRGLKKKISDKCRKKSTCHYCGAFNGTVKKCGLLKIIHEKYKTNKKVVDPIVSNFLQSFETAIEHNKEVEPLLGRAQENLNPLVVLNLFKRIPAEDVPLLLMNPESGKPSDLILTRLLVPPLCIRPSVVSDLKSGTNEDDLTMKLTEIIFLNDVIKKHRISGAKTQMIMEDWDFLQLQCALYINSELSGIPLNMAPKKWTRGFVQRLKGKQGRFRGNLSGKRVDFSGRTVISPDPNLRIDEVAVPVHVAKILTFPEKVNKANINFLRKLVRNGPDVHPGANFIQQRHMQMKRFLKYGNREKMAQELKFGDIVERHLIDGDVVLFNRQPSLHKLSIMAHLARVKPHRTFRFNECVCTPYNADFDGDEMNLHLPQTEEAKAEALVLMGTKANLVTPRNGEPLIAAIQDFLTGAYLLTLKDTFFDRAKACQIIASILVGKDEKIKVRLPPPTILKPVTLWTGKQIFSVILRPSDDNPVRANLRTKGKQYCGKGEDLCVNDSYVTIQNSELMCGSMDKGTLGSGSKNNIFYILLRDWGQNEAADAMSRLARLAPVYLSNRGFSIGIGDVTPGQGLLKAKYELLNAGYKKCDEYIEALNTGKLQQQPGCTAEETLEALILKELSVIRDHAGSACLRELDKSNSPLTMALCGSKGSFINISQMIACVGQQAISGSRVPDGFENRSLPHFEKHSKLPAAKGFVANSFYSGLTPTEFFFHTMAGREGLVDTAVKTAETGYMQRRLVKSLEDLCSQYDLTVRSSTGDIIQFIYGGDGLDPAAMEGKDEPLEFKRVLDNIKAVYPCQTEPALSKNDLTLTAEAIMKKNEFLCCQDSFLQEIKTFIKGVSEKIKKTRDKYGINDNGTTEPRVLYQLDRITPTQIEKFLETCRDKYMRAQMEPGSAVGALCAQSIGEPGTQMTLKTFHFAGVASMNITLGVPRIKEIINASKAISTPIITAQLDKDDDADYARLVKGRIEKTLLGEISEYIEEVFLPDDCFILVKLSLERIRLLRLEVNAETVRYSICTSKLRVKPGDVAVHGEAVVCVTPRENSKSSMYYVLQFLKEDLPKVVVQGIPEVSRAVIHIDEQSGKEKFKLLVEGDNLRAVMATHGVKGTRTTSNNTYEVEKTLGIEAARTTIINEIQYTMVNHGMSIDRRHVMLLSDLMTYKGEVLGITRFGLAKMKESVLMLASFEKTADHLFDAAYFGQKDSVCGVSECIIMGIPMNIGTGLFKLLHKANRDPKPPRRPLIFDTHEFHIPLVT
T1 sequence (P59470 1-1133): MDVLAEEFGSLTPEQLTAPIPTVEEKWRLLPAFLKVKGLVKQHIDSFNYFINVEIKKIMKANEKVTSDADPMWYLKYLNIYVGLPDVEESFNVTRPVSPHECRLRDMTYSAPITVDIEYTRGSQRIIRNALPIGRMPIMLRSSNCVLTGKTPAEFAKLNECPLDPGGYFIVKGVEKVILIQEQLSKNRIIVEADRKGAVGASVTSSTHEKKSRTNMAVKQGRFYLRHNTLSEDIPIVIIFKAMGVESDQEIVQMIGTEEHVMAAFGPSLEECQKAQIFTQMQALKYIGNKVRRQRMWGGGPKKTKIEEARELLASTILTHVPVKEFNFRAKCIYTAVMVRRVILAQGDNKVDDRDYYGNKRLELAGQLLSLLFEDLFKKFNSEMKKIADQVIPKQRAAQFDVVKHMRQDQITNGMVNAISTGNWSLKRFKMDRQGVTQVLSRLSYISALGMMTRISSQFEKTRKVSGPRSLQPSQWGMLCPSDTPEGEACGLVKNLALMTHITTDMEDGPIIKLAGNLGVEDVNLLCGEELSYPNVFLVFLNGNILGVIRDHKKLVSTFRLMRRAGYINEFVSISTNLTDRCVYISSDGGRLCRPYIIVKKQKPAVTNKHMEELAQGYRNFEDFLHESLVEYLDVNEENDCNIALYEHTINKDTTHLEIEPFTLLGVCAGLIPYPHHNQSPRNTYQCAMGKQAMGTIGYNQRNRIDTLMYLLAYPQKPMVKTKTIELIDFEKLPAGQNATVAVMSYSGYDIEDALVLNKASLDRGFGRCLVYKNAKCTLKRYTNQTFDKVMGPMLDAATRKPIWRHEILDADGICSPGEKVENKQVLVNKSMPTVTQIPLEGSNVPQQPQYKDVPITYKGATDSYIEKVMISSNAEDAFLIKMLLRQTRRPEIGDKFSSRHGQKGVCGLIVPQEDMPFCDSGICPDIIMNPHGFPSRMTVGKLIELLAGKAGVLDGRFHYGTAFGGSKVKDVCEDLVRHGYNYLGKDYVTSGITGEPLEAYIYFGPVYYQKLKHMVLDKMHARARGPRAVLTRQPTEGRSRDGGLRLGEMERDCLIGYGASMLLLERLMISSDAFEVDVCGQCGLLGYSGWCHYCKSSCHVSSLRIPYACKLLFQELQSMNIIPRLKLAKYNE
Experiment: In vivo transfer ribonucleic acid polymerase activity
Description: CF1 male mice (~30 g) were implanted with 2×10^6 Ehrlich ascites tumor cells, intraperitoneally on Day 0. Compound I was suspended by homogenation in 0.05% polysorbate.80-water and administered intraperitoneally at 10 and 20 mg/kg for 9 days to determine its effectiveness for inhibition of tumor growth. Mice were sacrificed on Day 10, and the ascites fluid was collected from the peritoneal cavity. The volume and ascrit (packed cell volume) were determined for each animal and the percent inhibition of tumor growth was calculated. For the metabolic studies, mice were treated on Days 8 and 9 with 10 mg/kg of Compound I, intraperitoneally. The animal was sacrificed on Day 10 and the ascites fluid harvested. The in vitro metabolic studies were performed at […] final concentration of Compound I.
In vitro and in vivo nuclear deoxyribonucleic acid polymerase activity was determined on isolated Ehrlich ascites cell nuclei. The incubation was that described by Sawada et al [Can. Res., 34, 3341 (1974)] except that [methyl-^3 H] deoxythymidine triphosphate (82.4 Ci/mmol) was used. The acid insoluble nucleic acid was collected on GF/F filters and counted. Nuclear ribonucleic acid polymerase activities were determined on enzymes isolated from nuclei. […] The acid insoluble ribonucleic acid was collected on nitrocellulose filters and counted.

For “{Cu[(CH3)3 N.BH2 CO2 ]2.(CH3)3 N.BH2 COOH} [Compound I]”, the “transfer ribonucleic acid polymerase activity suppressed” value was 37% and the “Transfer ribonucleic acid polymerase activity” value (10 mg/kg/day I.P. on Days 8 and 9) was 63 ± 7 % Control.
